Reference: article PMC4493460, “Increasing the Biological Stability Profile of a New Chemical Entity, UPEI-104, and Potential Use as a Neuroprotectant Against Reperfusion-Injury” (Brain Sciences, 2015)
“Also recorded” adds a separate entry of the source. Like-named read-outs stand apart in the source and are kept apart here.

Experiments:
[1] = Stability in human plasma (Cerep, HPLC-MS/MS); type: in vitro ADME; details: 1.0E−06 M, 37 °C; for half-life at 1 µM: human, plasma, 0-120 min
Experimental: The detection method was HPLC-MS/MS. At the end of incubation at each of the time points, acetonitrile was added to the incubation mixture followed by centrifugation. Samples were analyzed by HPLC-MS/MS and peak areas were recorded for each analyte. The area of precursor compound remaining after each of the time points relative to the amount remaining at time zero, expressed as percent, was calculated. […] Further experimental detail may be found in [30].
Further experimental detail may be found in [32].

in vitro = details: for microsomal CLint at 100 nM / % Compound Remaining, 1st / % Compound Remaining, 2nd / % Compound Remaining, Mean / half-life at 100 nM: human, microsomes; for % Compound Remaining, 1st / % Compound Remaining, 2nd / % Compound Remaining, Mean: 100 nM
Experimental: Briefly, incubation was performed at 37 °C for times between 0 and 60 min as indicated. The detection method was HPLC-MS/MS. Intrinsic clearance from microsomes (S9, cryopreserved hepatocytes, recombinant CYP, recombinant UGT) was assayed. Metabolic stability, expressed as percent of the parent compound remaining, was calculated by comparing the peak area of the compound at the time point relative to that at time 0. The half-life (T1/2) was estimated from the slope of the initial linear range of the logarithmic curve of compound remaining (%) vs. time, assuming the first-order kinetics.
A solution of each test compound (1000 ng/mL or 10 μM) was prepared as described above and infused into the TSQ Quantum source via syringe pump at a constant rate. Full scan MS analysis was conducted and total ion current chromatograms and corresponding mass spectra were generated for each test compound in both positive and negative ionization modes. The precursor ions for MS/MS were selected from either the positive or the negative mass spectrum, as a function of the respective ion abundance. In addition, product ion MS/MS analysis was performed in order to determine the appropriate selected fragmentation reaction for use in quantitative analysis. The final reaction monitoring parameters were chosen to maximize the ability to quantify the test compound when present within a complex mixture of components. Following identification of the specific SRM transition to be used for each test compound, the detection parameters were optimized using the automated protocol in the TSQ Quantum Compound Optimization Workspace software package (Thermo Scientific, MA, USA). Finally, the chromatographic conditions to be used for LC-MS analysis were identified by injection and separation of the analyte on a suitable LC column and adjustment of the gradient conditions as necessary. Further experimental detail may be found in [32].
Mobile Phase B: 6 mM ammonium formate/3 mM formic acid in water/acetonitryl (ACN; 1/9, v/v). Column: Hypersil GOLD DASH HTS, 2.1 × 20 mm, 3 micron (Thermo Scientific, MA, USA; see Table 1 for details).

[2] = set-up: method as in PMID 22277933; details: animals injected i.v.; immediately, as early as 1 min after injection; previous work; cited from earlier work
[3] = tested on: infarct volume following tMCAO; set-up: method as in PMID 22277933; details: cited from earlier work
NADPH oxidase = tested on: NADPH oxidase; set-up: method as in PMID 22277933, PMID 18511205; details: compared with apocynin alone; cited from earlier work
[4] = set-up: method as in PMID 21172313; details: cited from earlier work
[5] = tested on: infarct volume following tMCAO; assay: Transient middle cerebral artery occlusion (tMCAO) ischemia-reperfusion injury, infarct volume by TTC staining; type: in vivo, Sprague-Dawley rats; details: rats, 30 min occlusion, 5.5 h reperfusion
Experimental: All surgical procedures described below were approved by the University of Prince Edward Island Animal Care Committee and were in compliance with the requirements of the Canadian Council on Animal Care. Our surgical protocol has been described previously. Briefly, rats were anaesthetized with sodium thiobutabarbital (Inactin, Sigma Aldrich, St. Louis, MO, USA; 100 mg/kg, intraperitoneal; i.p.) and kept warm on a heating pad maintained at 37 ± 1 °C. A venous cannula was inserted into the right femoral vein to allow for all drug injections and supplemental anaesthesia, if required. Rats were then transferred to a stereotaxic frame to allow for surgical access to the right middle cerebral artery (MCA). As detailed in our previous publication, we used a 3-point occlusion of the MCA by inserting suture under the vessel and applying pressure, by gently lifting the sutures, to occlude flow by 100% (as confirmed by laser Doppler flowmetry). The period of occlusion lasted for 30 min, followed by a 5.5 h period of reperfusion, which was accomplished by removal of these sutures (transient ischemia model, tMCAO). […] Sections were then scanned (both sides) the next day, and infarct area was measured using imaging software (Image J; Scion Corporation, Frederick, MD, USA). […] Data was analyzed by an investigator blinded to the treatment groups. […]

infarct volume, MCAO = tested on: infarct volume, MCAO; set-up: method as in PMID 1299626, PMID 19417757, PMID 21946070, PMID 19175604, PMID 17697529; details: cited from earlier work
global ischemia = tested on: global ischemia; set-up: method as in PMID 16650838; details: gerbils, given 5 min following 5 min of global ischemia, assessed four days later; cited from earlier work

Structure (SMILES): CCCOc1cc(N)ccc1C(=O)OCCN(CC)CC [Propoxycaine, reference compound]
- half-life at 1 µM ([1]; read-out: Half-Life, 1st): < 30 min
- half-life at 1 µM ([1]; read-out: Half-Life, 2nd): < 30 min
- half-life at 1 µM ([1]; read-out: Half-Life, Mean): < 30 min

Structure (SMILES): COc1cc(C(C)=O)ccc1OC(=O)CCCCC1CCSS1 (centres unmarked) [UPEI-100]
- Flags (detection of test compound in the assay matrix) (in vitro): not detected in the assay at any time point
- microsomal CLint at 100 nM (in vitro): 6030 µL/min/mg
- % Compound Remaining, 1st (in vitro; 0 h): 100.0%
- % Compound Remaining, 2nd (in vitro; 0 h): 100.0%
- % Compound Remaining, Mean (in vitro; 0 h): 100%
- % Compound Remaining, 1st (in vitro; 0.25 h): 0.0%
- % Compound Remaining, 2nd (in vitro; 0.25 h): 0.0%
- % Compound Remaining, Mean (in vitro; 0.25 h): 0%
- % Compound Remaining, 1st (in vitro; 0.5 h): 0.0%
- % Compound Remaining, 2nd (in vitro; 0.5 h): 0.0%
- % Compound Remaining, Mean (in vitro; 0.5 h): 0%
- % Compound Remaining, 1st (in vitro; 0.75 h): 0.0%
- % Compound Remaining, 2nd (in vitro; 0.75 h): 0.0%
- % Compound Remaining, Mean (in vitro; 0.75 h): 0%
- % Compound Remaining, 1st (in vitro; 1 h): 0.0%
- % Compound Remaining, 2nd (in vitro; 1 h): 0.0%
- % Compound Remaining, Mean (in vitro; 1 h): 0%
- half-life at 100 nM (in vitro; 1st): 1.1 min
- half-life at 100 nM (in vitro; 2nd): < 15 min
- half-life at 100 nM (in vitro; Mean): ~1 min
- Detection in tissue samples / central nervous system following intravenous injection [2]: undetectable; also recorded: unable to detect; also recorded: could not be detected
- Dose at which infarct volume was reduced ([3]; same in vivo model of reperfusion-injury, previously observed): 0.1 mg/kg
- Dose for equivalent neuroprotection compared to each parent compound (lipoic acid, apocynin), fold lower ([3]; tMCAO, previous work): 100 fold
- Inhibition of NADPH oxidase (NADPH oxidase): inhibited NADPH oxidase
- % Compound Remaining, 1st ([1]; incubation 0 min): 100.0%
- % Compound Remaining, 2nd ([1]; incubation 0 min): 100.0%
- % Compound Remaining, Mean ([1]; incubation 0 min): 100%
- % Compound Remaining, 1st ([1]; incubation 30 min): 92.7%
- % Compound Remaining, 2nd ([1]; incubation 30 min): 126.6%
- % Compound Remaining, Mean ([1]; incubation 30 min): 110%
- % Compound Remaining, 1st ([1]; incubation 60 min): 100.7%
- % Compound Remaining, 2nd ([1]; incubation 60 min): 116.0%
- % Compound Remaining, Mean ([1]; incubation 60 min): 108%
- % Compound Remaining, 1st ([1]; incubation 90 min): 99.5%
- % Compound Remaining, 2nd ([1]; incubation 90 min): 111.2%
- % Compound Remaining, Mean ([1]; incubation 90 min): 105%
- % Compound Remaining, 1st ([1]; incubation 120 min): 109.9%
- % Compound Remaining, 2nd ([1]; incubation 120 min): 140.1%
- % Compound Remaining, Mean ([1]; incubation 120 min): 125%
- half-life at 1 µM ([1]; read-out: Half-Life, 1st): > 120 min
- half-life at 1 µM ([1]; read-out: Half-Life, 2nd): > 120 min
- half-life at 1 µM ([1]; read-out: Half-Life, Mean): > 120 min

Structure (SMILES): O=C(O)CCCCC1CCSS1 (stereo not drawn) [LA, α-Lipoic acid]
- Neuroprotection ([4]; 5 mg/kg (most effective dose), administered just prior to the beginning of reperfusion): did not result in significant neuroprotection
- Neuroprotection ([4]; 5 mg/kg, administered prior to both occlusion and reperfusion): produced neuroprotection

Structure (SMILES): CC(C)[N+](C)(CCOC(=O)C1c2ccccc2Oc2ccccc21)C(C)C [Propantheline, reference compound]
- half-life at 1 µM ([1]; read-out: Half-Life, 1st): 7.2 min
- half-life at 1 µM ([1]; read-out: Half-Life, 2nd): 7.2 min
- half-life at 1 µM ([1]; read-out: Half-Life, Mean): 7 min

Structure (SMILES): COc1cc(C(C)=O)ccc1OCCCCCC1CCSS1 (centres unmarked) [UPEI-104]
- microsomal CLint at 100 nM (in vitro): 963 µL/min/mg
- half-life at 100 nM (in vitro; 1st): 7.3 min
- half-life at 100 nM (in vitro; 2nd): 7.1 min
- half-life at 100 nM (in vitro; Mean): ~7 min
- Infarct volume vs vehicle group ([5]; 0.1 mg/kg i.v. 30 min prior to MCA occlusion, p < 0.05): significantly lower
- Effect on infarct volume as a function of dose ([5]; 0.001–0.1 mg/kg i.v. 30 min prior to MCA occlusion): dose-dependent reduction in infarct volume
- % Compound Remaining, 1st ([1]; incubation 0 min): 100.0%
- % Compound Remaining, 2nd ([1]; incubation 0 min): 100.0%
- % Compound Remaining, Mean ([1]; incubation 0 min): 100%
- % Compound Remaining, 1st ([1]; incubation 30 min): 89.3%
- % Compound Remaining, 2nd ([1]; incubation 30 min): 112.0%
- % Compound Remaining, Mean ([1]; incubation 30 min): 101%
- % Compound Remaining, 1st ([1]; incubation 60 min): 95.5%
- % Compound Remaining, 2nd ([1]; incubation 60 min): 98.6%
- % Compound Remaining, Mean ([1]; incubation 60 min): 97%
- % Compound Remaining, 1st ([1]; incubation 90 min): 82.9%
- % Compound Remaining, 2nd ([1]; incubation 90 min): 76.4%
- % Compound Remaining, Mean ([1]; incubation 90 min): 80%
- % Compound Remaining, 1st ([1]; incubation 120 min): 77.2%
- % Compound Remaining, 2nd ([1]; incubation 120 min): 90.1%
- % Compound Remaining, Mean ([1]; incubation 120 min): 84%
- half-life at 1 µM ([1]; read-out: Half-Life, 1st): 352 min
- half-life at 1 µM ([1]; read-out: Half-Life, 2nd): 351 min
- half-life at 1 µM ([1]; read-out: Half-Life, Mean): > 120 min

Structure (SMILES): COc1cc(C(C)=O)ccc1O [apocynin, 4-hydroxy-3-methoxyacetophenone]
- Infarct volume (infarct volume, MCAO; administered during occlusion of the middle cerebral artery): attenuation of infarct volume
- Infarct volume benefit (infarct volume, MCAO; administration delayed following the onset of reperfusion): benefits were lost
- Neuronal degeneration, neuronal death and microglial activation (global ischemia): decreased neuronal degeneration and delayed neuronal death and microglial activation
